Experimental data taken from patent publication US20240174696A1, “2,8-DIAZASPIRO[4.5]DECANE COMPOUNDS” (Genentech, Inc., priority 2021, published 2024).
Structures can show the parent of a compound that is named as a salt.

Legend:
[1] = test system: TAZ nuclear translocation in SW1990 cells; assay: TAZ Nuclear Translocation Assay; assay type: cell-based; conditions: Homo sapiens, 4 hours
Experimental: The SW1990 cells (ATCC, CRL2172) were seeded at 5000 cells/well by adding 30 μL/well of cells in RPMI1640, 10% FBS, 2 mM glutamine culture media to a 384-well plate (Greiner 781091). The cells were incubated overnight at 37° C. Next day, test compounds were directly added to the cells using the Echo Liquid Handler (Labcyte), incubate at 37° C. for 4 hours. The cells were fixed with 4% paraformaldehyde and incubate for 20 minutes at room temperature. After washing three times with 100 μL PBS, 0.5% Triton X-100 was added to permeabilize the cells, incubate at room temperature for 5 minutes, following by washing the cells three times with PBS. 3% BSA was added to the cells, incubate for one hour at room temperature, following by washing three times with PBS. 50 μL of 1:750 diluted rabbit Anti-TAZ (Cell signaling D316D) in 3% BSA was added to the cells, incubate at 4° C. overnight. Next day, after washing the cells three times with PBS, 50 μL of 1:1250 diluted donkey anti-Rabbit, Alexa Fluor 488 (Invitrogen A21206) and 1:6250 diluted Hoechst 33342 (Molecular Probes H-21492) in 3% BSA was added to the cells, incubate at room temperature for one hour. The cells were washed three times with PBS, then image with the CellInsight CX7 High-Content Imager. The ratio of nuclear mean fluorescence intensity and cytoplasmic ring region mean fluorescence intensity was calculated. The % inhibition was normalized using DMSO as 0% inhibition and an inhibitor control as 100% inhibition. The EC50 values were calculated by fitting the % inhibition with a nonlinear four-parameter logistical equation.

[2] = target: Human LATS2 catalytic domain (Homo sapiens (Human), UniProt Q9NRM7); assay: LATS2 High ATP HTRF Assay; assay type: biochemical; conditions: no asterisk: LATS2 High ATP HTRF Assay, 5000 μM ATP, 0.05 nM LATS2
Experimental: Human LATS2 catalytic domain which contains the amino acids G553-V1088 (accession NP_055387) was purified in-house. The LATS2 catalytic domain was co-purified with Mob1b (accession NP_775739). The LATS2 biochemical HTRF assay was performed using the HTRF KinEASE-STK S1 Kit (Cisbio, Cat #62ST1PEC), following the protocol from the manufacturer. Compounds were dispensed by the Echo Liquid Handler (Labcyte) into a white 384-well plate (PerkinElmer, Cat #6008289). 3 uL of 2×LATS2 enzyme solution was added to the compounds, following by a 10 minute incubation at room temperature. Then, 2×ATP and STK S1 peptide solution was added to initiate the one hour enzyme reaction at room temperature. The final condition of the reaction was 0.2 nM LATS2, 50 μM ATP, 0.5 μM STK S1 peptide in 50 mM HEPES pH7.2, 10 mM MgCl2, 0.1% BGG, 0.005% Brij-35, 1 mM DTT. The reaction was quenched by adding 6 uL of the detection mixture which contained Streptavidin XL665 and STK Antibody-Cryptate (Cisbio), incubate for 1 hour at room temperature. The HTRF (665 nm/620 nm) signal was read on the Envision plater reader (PerkinElmer). The IC50 values were determined by fitting the % inhibition with a nonlinear four-parameter logistical equation. The Ki values were calculated using the Cheng-Prusoff equation for a competitive inhibitor, IC50═Ki (1+S/Km)+M [E] with ATP Km for LATS2=105 μM.
The LATS2 high ATP HTRF assay was performed using the same protocol as the Standard LATS2 HTRF assay. The final condition of the reaction was 0.05 nM LATS2, 5000 μM ATP, 0.5 μM STK S1 peptide in 50 mM HEPES pH7.2, 10 mM MgCl2, 0.1% BGG, 0.005% Brij-35, 1 mM DTT and the 2 hours enzyme reaction at room temperature.

Chain of Human LATS2 catalytic domain (Q9NRM7 553-1088): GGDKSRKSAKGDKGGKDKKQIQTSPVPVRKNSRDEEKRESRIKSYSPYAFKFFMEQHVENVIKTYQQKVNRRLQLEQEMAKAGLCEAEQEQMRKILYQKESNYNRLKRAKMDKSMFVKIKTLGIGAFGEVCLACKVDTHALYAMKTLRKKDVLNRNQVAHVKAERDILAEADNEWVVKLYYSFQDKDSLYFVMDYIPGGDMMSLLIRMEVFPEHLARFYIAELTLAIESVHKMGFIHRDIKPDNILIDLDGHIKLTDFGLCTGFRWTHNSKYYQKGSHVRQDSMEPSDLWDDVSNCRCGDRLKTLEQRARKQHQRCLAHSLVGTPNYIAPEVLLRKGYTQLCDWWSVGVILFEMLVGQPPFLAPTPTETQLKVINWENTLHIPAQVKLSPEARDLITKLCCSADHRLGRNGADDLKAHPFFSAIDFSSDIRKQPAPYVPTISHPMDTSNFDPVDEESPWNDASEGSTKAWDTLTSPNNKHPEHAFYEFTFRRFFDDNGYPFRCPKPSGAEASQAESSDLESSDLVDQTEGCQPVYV
Chain of Human LATS2 catalytic domain (Q7L9L4 whole entry partner, the tested form may be a part): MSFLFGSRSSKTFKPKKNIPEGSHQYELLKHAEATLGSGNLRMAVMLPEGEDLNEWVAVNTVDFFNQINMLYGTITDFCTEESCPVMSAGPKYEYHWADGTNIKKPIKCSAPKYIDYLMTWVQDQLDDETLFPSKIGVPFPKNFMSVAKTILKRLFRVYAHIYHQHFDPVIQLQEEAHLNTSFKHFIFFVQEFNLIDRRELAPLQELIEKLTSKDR

c1cc(-c2nc(N3CCC4(CC3)CCN(C3CCOC3)C4)c3ccncc3n2)ccn1 (racemic) [Compound 111, 2-(pyridin-4-yl)-4-(2-(tetrahydrofuran-3-yl)-2,8-diazaspiro[4.5]decan-8-yl)pyrido[3,4-d]pyrimidine]
EC50 [1]: 630 nM | Ki [2]: 0.14 nM

CN1CC2(CCN(c3nc(-c4ccncc4)nc4cnccc34)CC2)CC1CO (racemic) [Example 212, (2-methyl-8-(2-(pyridin-4-yl)pyrido[3,4-d]pyrimidin-4-yl)-2,8-diazaspiro[4.5]decan-3-yl)methanol]
EC50 [1]: 2500 nM | Ki [2]: 0.41 nM

FCC1CC2(CCN(c3nc(-c4ccncc4)nc4cnccc34)CC2)CN1 (racemic) [Example 216, 4-(3-(fluoromethyl)-2,8-diazaspiro[4.5]decan-8-yl)-2-(pyridin-4-yl)pyrido[3,4-d]pyrimidine]
EC50 [1]: 490 nM | Ki [2]: 0.13 nM

COCC1CC2(CCN(c3nc(-c4ccncc4)nc4cnccc34)CC2)CN1C (racemic) [Example 217, 4-(3-(methoxymethyl)-2-methyl-2,8-diazaspiro[4.5]decan-8-yl)-2-(pyridin-4-yl)pyrido[3,4-d]pyrimidine]
EC50 [1]: 780 nM | Ki [2]: 0.35 nM

c1cc(-c2nc(N3CCC4(CC3)CC3COCCN3C4)c3ccncc3n2)ccn1 (racemic) [Example 218, 1-(2-(pyridin-4-yl)pyrido[3,4-d]pyrimidin-4-yl)hexahydrospiro[piperidine-4,7′-pyrrolo[2,1-c][1,4]oxazine]]
EC50 [1]: 6800 nM | Ki [2]: 4.3 nM

C[C@H](CO)N1CCC2(CCN(c3nc(-c4ccncc4)nc4cnccc34)CC2)C1 (single isomer, unassigned) [Compound 103]
EC50 [1]: 740 nM | Ki [2]: 0.58 nM

C[C@@H](CO)N1CCC2(CCN(c3nc(-c4ccncc4)nc4cnccc34)CC2)C1 (single isomer, unassigned) [Compound 104]
EC50 [1]: 450 nM | Ki [2]: 0.53 nM

Cc1n[nH]cc1-c1nc(N2CCC3(CCN(C[C@H](C)O)C3)CC2)c2ccncc2n1 (single isomer, unassigned) [Compound 144]
EC50 [1]: 690 nM | Ki [2]: 0.086 nM

Cc1n[nH]cc1-c1nc(N2CCC3(CCN(C[C@@H](C)O)C3)CC2)c2ccncc2n1 (single isomer, unassigned) [Compound 145]
EC50 [1]: 940 nM | Ki [2]: 0.039 nM

O[C@H]1CC[C@@H](N2CCC3(CCN(c4nc(-c5ccncc5)nc5cnccc45)CC3)C2)C1 (single isomer, unassigned) [Compound 169]
EC50 [1]: 570 nM | Ki [2]: 0.45 nM

O[C@@H]1CC[C@H](N2CCC3(CCN(c4nc(-c5ccncc5)nc5cnccc45)CC3)C2)C1 (single isomer, unassigned) [Compound 170]
EC50 [1]: 380 nM | Ki [2]: 0.29 nM

O[C@@H]1COC[C@H]1N1CCC2(CCN(c3nc(-c4ccncc4)nc4cnccc34)CC2)C1 (single isomer, unassigned) [Compound 176]
EC50 [1]: 1790 nM | Ki [2]: 0.93 nM

O[C@H]1COC[C@@H]1N1CCC2(CCN(c3nc(-c4ccncc4)nc4cnccc34)CC2)C1 (single isomer, unassigned) [Compound 177]
EC50 [1]: 2500 nM | Ki [2]: 0.39 nM

O[C@@H]1CC[C@H]1N1CCC2(CCN(c3nc(-c4ccncc4)nc4cnccc34)CC2)C1 (single isomer, unassigned) [Compound 179]
EC50 [1]: 740 nM | Ki [2]: 0.1 nM

O[C@@H]1CC[C@@H]1N1CCC2(CCN(c3nc(-c4ccncc4)nc4cnccc34)CC2)C1 (single isomer, unassigned) [Compound 180]
EC50 [1]: 1300 nM | Ki [2]: 1.38 nM

O[C@H]1CC[C@H]1N1CCC2(CCN(c3nc(-c4ccncc4)nc4cnccc34)CC2)C1 (single isomer, unassigned) [Compound 181]
EC50 [1]: 1900 nM | Ki [2]: 1.87 nM

COc1cncc2nc(-c3ccncc3)nc(N3CCC4(CCN(C)C4)CC3)c12 [Compound 252, 5-Methoxy-4-(2-methyl-2,8-diazaspiro[4.5]decan-8-yl)-2-(pyridin-4-yl)pyrido[3,4-d]pyrimidine formate]
EC50 [1]: 130 nM
